Source: patent US8609358B2, “Methods, peptides and biosensors useful for detecting a broad spectrum of bacteria” (priority 2003, dated 2013)
Primed or numbered codes have the meaning given here. Dabcyl′ = FRET label; Edans = FRET label

Experiments:
[1] = tested on: bacterial culture (media and cells); assay: Broad spectrum FRET assay, overnight bacterial culture; type: biochemical; settings: pH 7.2, 150 mM NaCl, 37° C.
Method: (§1) A culture of each of the following bacterial species was grown overnight (O/N) in Brain Heart Infusion (BHI) broth at 37° C. with vigorous shaking (˜200 rpm), using methods that are standard in the art: Staphylococcus aureus; Streptococcus pyogenes; Serratia marcescens; Escherichia coli; Pseudomonas aeruginosa (PA14); Pseudomonas aeruginosa (GSU3); and Enterococcus faecalis. After overnight growth, a 1 ml sample of each culture was obtained, and the cells were removed from the culture supernatant by centrifugation at 12,000×g for 5 minutes. The remaining culture supernatants were stored on ice until required (less than one hour). The bacteria were assayed for the presence or absence of enzymes as described below.
Two peptide substrates, CPI1 and CPI2, were designed to encompass all of the cleavage sites of the RSL sequence, as shown in FIGS. 1A and 1B. The peptide substrates were labeled with the fluorescent probe edans (5-((2-aminoethyl)amino)naphthalene-1-sulfonic acid) and the quencher dye molecule dabcyl ((4-(4-(dimethylamino)phenyl)azo)benzoic acid).
The bacteria were grown in an incubator overnight at 37° C. in 5 mL BHI (Brain Heart Infusion) media. Each of the resulting cultures was split into two samples. […] The reaction was followed on a fluorimetric plate reader using an excitation wavelength of 355 nm and an emission wavelength of 485 nm. […]

[2] = tested on: proteases of Enterococcus; assay: Surface sensor sensitivity: cleavage of CPI2 by bacterial proteases; type: biochemical, Enterococcus faecalis
Method: (§2) CPI2 was determined to be a good candidate for a broad-spectrum sensor. Surface sensors were constructed as follows:
(§3) Membrane used: Pall SB6407
(§4) The sensors were air dried and stored overnight at −20° C. Sensors were loaded into sterile 96 well plates for the sensitivity study.
(§5) The bacteria E. faecalis, P. aeruginosa, S. aureus, S. pyogenes, and S. marcescens were grown in an incubator overnight at 37° C. in 5 ml BHI (Brain Heart Infusion) media and diluted to the concentrations given for each experiment. Each strain of bacteria was diluted with PBS (pH 7.4) to obtain an optical density (OD) of approximately 0.52 at 550 nm. This OD was assumed to represent approximately 10^8 cells/ml of bacteria. The 10^8 cells/ml stock of each bacteria was diluted with PBS to obtain a concentration series of: 10^7, 10^6, 10^5 and 10^4 cells/ml. Sensitivity testing consisted of placing 100 μL of each of the concentration series of 10^7, 10^6, 10^5 and 10^4 cells/ml (cells) onto a row of sensors. Controls for each sensitivity testing consisted of sensors exposed to 100 μL PBS.
(§6) Data was taken at 4, 24 and 48 hours for each plate. […] Images were analyzed using NIH ImageJ, a public domain image processing and analysis program developed at the National Institutes of Health (NIH). […]

proteases of Pseudomonas = assay: as above; type: biochemical, Pseudomonas aeruginosa
Method: as §2, §3, §4, §5, §6

[3] = tested on: proteases of Staphylococcus; assay: as above; type: biochemical, Staphylococcus aureus
Method: as §2, §3, §4, §5, §6

[4] = tested on: proteases of Streptococcus; assay: as above; type: biochemical, Streptococcus pyogenes
Method: as §2, §3, §4, §5, §6

proteases of Serratia = assay: as above; type: biochemical, Serratia marcescens; settings: for sensor signal: end of sensor study (40 hours)
Method: as §2, §3, §4, §5
Data was taken at 4, 24 and 48 hours for each plate. Data consisted of color (fluorescent) images of each plate taken under relatively uniform conditions (lighting, exposure time, etc.) using a Kodak DC290 digital camera. Images were analyzed using NIH ImageJ, a public domain image processing and analysis program developed at the National Institutes of Health (NIH). Analysis consisted of measuring the intensity value within each well (i.e., the sum of the intensity values of all the pixels in the selection divided by the number of pixels). Pixels range in value from 0 to 1. […] All sensor sensitivity data is plotted on an index scale from 0 to 1 versus time and the trends accurately reflect what is seen in the images.

[5] = tested on: E. coli cells or supernatant; assay: Cleavage of CPI2 incubated with E. coli; type: biochemical, Escherichia coli
Method: as §1
The bacteria were grown in an incubator overnight at 37° C. in 5 mL BHI (Brain Heart Infusion) media. Each of the resulting cultures was split into two samples. One was used as a culture, and the other was spun down by centrifugation and the supernatant was collected. The assays were run in 20 mM tris buffer (pH 7.2) with 150 mM NaCl added […]. The cleavage reaction was carried out with 7 μL of culture or supernatant and 3 μL of peptide substrate (5 mg/mL in water/DMSO) in 100 μL total volume at 37° C. The reaction was followed on a fluorimetric plate reader using an excitation wavelength of 355 nm and an emission wavelength of 485 nm.

[6] = Cleavage of CPI2 in uninfected wound fluid; type: biochemical; settings: in the presence of uninfected wound fluid
[7] = tested on: five different clinical strains of E. faecalis; assay: Inter-strain operability; type: biochemical, Enterococcus faecalis; settings: all five clinical strains
Text: A CIP2 fluorescent resonance entergy transfer (FRET) peptide was exposed to five different clinical strains of E. faecalis (obtained from the University of Colorado). […] FIG. 12 illustrates a graph of the relative fluorescence measured after exposure to the various strains.

[8] = 10^5 bacteria/ml, end of sensor study (40 hours)

Edans-EAAGAMFLEAIPK-Dabcyl (Edans-EAAGAMFLEAIPK-{Dabcyl′}) [CPI1]
protease activity (relative fluorescence) [1]: protease activity was observed for a number of the bacteria

Edans-EGAMFLEAIPMSIPK-Dabcyl (Edans-EGAMFLEAIPMSIPK-{Dabcyl′}) [CPI2]
sensor signal [2, 8]: strong signal | cleavage of peptide substrate ([2]; proteases of Enterococcus): efficiently cleaved | sensor signal (proteases of Pseudomonas; [8]): strong signal | cleavage of peptide substrate (proteases of Pseudomonas; proteases of Pseudomonas): efficiently cleaved | sensor signal [3, 8]: strong signal | cleavage of peptide substrate ([3]; proteases of Staphylococcus): efficiently cleaved | sensor signal [4, 8]: strong signal | cleavage of peptide substrate ([4]; proteases of Streptococcus): efficiently cleaved | sensor signal (proteases of Serratia; 10^4 bacteria/ml): not observed to give a signal that can be significantly measured above the background | sensor signal (proteases of Serratia; 10^5 bacteria/ml): strong signal | cleavage of peptide substrate (proteases of Serratia; proteases of Serratia): efficiently cleaved | sensor signal ([5]; 10^5 bacteria/ml): not | cleavage of peptide substrate ([5]; incubated with E. coli cells or supernatant): not cleaved | cleavage of peptide substrate [6]: not cleaved | protease activity (relative fluorescence) [1]: protease activity was observed for a number of the bacteria | reaction with strains (relative fluorescence) [7]: reacted strongly
